The subject of series [1] is iSeroSnFR. Briefly: Dose-response of 5-HT binding to extracellular membrane-tethered iSeroSnFR. Type of series: cell-based. The note with it: HEK293MSR cells, not saturated at 10 mM 5-HT. The source says:
Error bars represent SEM.
(2 pictures or pasted objects on this page, not shown here)

The test system of series [2] is NCCc1c[nH]c2ccc(O)cc12. Put plainly: cells, lysate or membranes. The note with it: other: HEK293MSR_iSeroSnFR cells with hSERT, 10 min, N = 7, pH 7.4.
The test system of series [3] is hSERT mutant I172M. Conditions: radiotracer assay; 10 µM [3H]5-HT; N = 3. How it is done: The uptake was terminated by washing the cells with ice-cold PBSCM, 50 µl Microscint (Perkin Elmer) was added and radioactivity was counted in a TopCounter microplate scintillation counter approximately one hour after microscint addition. The raw data was fitted to a non-linear fit in GraphPad Prism ([inhibitor] vs response (three parameters)) and normalized to the obtained top and bottom plateau as follows: rawdata-bottomplateau/topplateau-bottomplateau . The same non-linear fit of the normalized data was used to calculate logIC50 and IC50 values.

Series [4] addresses T1, hSERT (Homo sapiens, UniProt P31645). Briefly: 5-HT_FAsTR fluorescence efflux assay.
The test system of series [5] is hSERT mutant I172M. Conditions: fluorescence assay; 10 µM 5-HT; N = 3. Here is the method:
(§1) For the uptake inhibition assay determining IC50 values, the pre-incubation solutions contained 12 increasing concentrations of an hSERT or OCT2 inhibitor. […] The change in fluorescence was determined 10 min after adding the incubation solution. […] The raw data was fitted to a non-linear fit in GraphPad Prism ([inhibitor] vs response (three parameters) for hSERT data and [inhibitor] vs response – variable slope (four parameters) for hOCT2 data) and normalized to the obtained top and bottom plateau as follows: rawdata-bottomplateau/topplateau-bottomplateau . The same non-linear fit of the normalized data was used to calculate logIC50 and IC50 values. IC50 values were converted to pKi values using the Cheng-Prusoff equation[33]. pKi=pIC50/1+[S]/Km

Series [6] addresses T1, hSERT. Type of series: cell-based. On the set-up: expressed in transfected cells; host or cells: HEK293MSR cells stably expressing cytoplasmic iSeroSnFR. The note with it: 5 µM inhibitor, control experiment. From the text:
Data were fitted in Graphpad Prism to the in-built model for Michaelis–Menten kinetics using robust non-linear regression to calculate Km and Vmax.

Series [7] concerns the target T2, hOCT2 (Homo sapiens, UniProt O15244).
T2 sequence (O15244 1-555): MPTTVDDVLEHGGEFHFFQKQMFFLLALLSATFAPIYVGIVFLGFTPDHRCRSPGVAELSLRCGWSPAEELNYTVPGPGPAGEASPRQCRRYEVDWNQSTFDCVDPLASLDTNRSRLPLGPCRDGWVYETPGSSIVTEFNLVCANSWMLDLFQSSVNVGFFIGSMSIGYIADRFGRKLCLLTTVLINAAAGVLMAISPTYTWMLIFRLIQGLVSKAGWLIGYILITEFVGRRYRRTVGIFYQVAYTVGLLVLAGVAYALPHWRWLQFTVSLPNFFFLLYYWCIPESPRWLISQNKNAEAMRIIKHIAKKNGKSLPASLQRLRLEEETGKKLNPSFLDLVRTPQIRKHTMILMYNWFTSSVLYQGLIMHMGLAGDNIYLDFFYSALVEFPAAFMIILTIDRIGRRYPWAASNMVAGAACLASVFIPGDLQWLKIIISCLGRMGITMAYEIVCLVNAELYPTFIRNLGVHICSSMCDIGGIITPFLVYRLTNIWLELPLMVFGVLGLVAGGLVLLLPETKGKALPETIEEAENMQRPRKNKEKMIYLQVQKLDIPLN
Briefly: 5-HT_FAsTR fluorescence uptake inhibition assay, hOCT2. Type of series: cell-based. The note with it: corresponding to the pKi. How it is done: as §1

Substrate in series [8]: NCCc1c[nH]c2ccc(O)cc12
Briefly: cells, lysate or membranes. The note with it: other: hOCT2-transfected cells; non-specific uptake determined with imipramine; N = 3; pH 7.4.

Read-outs that look alike come from different tables or passages of the source. A value given as a limit tells only on which side of the number the result lay.

T1 sequence (P31645 whole entry): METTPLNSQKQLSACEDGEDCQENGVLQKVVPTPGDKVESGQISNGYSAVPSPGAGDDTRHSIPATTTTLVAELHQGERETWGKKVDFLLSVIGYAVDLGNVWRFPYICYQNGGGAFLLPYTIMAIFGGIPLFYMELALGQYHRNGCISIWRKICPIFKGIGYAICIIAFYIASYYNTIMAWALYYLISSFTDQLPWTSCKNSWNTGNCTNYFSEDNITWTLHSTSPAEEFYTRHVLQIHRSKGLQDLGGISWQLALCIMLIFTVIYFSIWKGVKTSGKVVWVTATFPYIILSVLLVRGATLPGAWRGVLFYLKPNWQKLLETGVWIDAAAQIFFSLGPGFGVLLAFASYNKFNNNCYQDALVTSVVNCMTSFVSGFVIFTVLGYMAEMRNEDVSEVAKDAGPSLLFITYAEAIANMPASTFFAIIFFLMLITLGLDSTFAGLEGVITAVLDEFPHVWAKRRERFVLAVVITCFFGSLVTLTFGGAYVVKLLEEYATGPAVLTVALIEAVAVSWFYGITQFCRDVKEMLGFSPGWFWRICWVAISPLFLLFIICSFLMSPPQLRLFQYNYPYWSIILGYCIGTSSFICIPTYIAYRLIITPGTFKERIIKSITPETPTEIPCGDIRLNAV

The EC50 is the midpoint of the concentration-response curve. In turn, `NCCc1c[nH]c2ccc(O)cc12` [5-HT, 5-hydroxytryptamine] had a concentration giving a half-maximal response (EC50) in series [1] of no less than 1520 µM.

By Km is commonly meant the concentration of substrate that gives half-maximal velocity. As for hSERT (Homo sapiens), the values for the Michaelis-Menten constant (Km) in series [2] (non-specific uptake determined with MJ1-53) and in series [2] (non-specific uptake determined with S-Citalopram) were 1.25 ± 0.48 µM and 1.79 ± 0.19 µM, respectively.

Turning to `CNC(C)Cc1ccc2c(c1)OCO2` (stereo not drawn) [MDMA], the “fold decrease in potency, hSERT I172M compared to wild type (IC50 ratio)” value in series [3] and in series [5] was “did not show any change” each time. In addition, the half-maximal effective concentration (EC50) in series [4] is 6.22 ± 1.62 µM. Also, the “fluorescence change ± SEM (drug-induced efflux rate)” value in series [4] (hSERT not present (empty vector), preloaded with 5-HT, N = 3) is 0.06 ± 0.01 %/minute. Moreover, in series [4] (hSERT-transfected cells preloaded with 10 µM 5-HT, N = 6), the “maximum fluorescence change ± SEM (drug-induced efflux rate)” value turned out to be 0.66 ± 0.13 %/minute. Further, in series [4] (hSERT-transfected cells vs background), the “release of 5-HT relative to background levels from passive diffusion” value is “at least 11 fold”.

For orientation: Ki means the equilibrium dissociation constant of an inhibitor or competing ligand from its target. The low end stands for higher affinity, the high end for lower affinity. As for `C[Se+](C)CCCN1c2ccccc2CCc2ccc(Cl)cc21` [MJ1-53], the “effect of blocking the serotonin transporter on 5-HT uptake (fluorescence intensity)” value in series [6] was “abolishes 5-HT uptake”. In addition, in series [7], the affinity corresponds to a Ki of 0.164 µM.

B1: hOCT2 (Homo sapiens) (protein)
chain: T2 sequence (O15244 1-555)
In the case of B1, in series [8], the Km is reported as 183.6 ± 65.18 µM.

The values are drawn from paper PMC10951269, “5-HT_FAsTR: a versatile, label-free, high-throughput, fluorescence-based microplate assay to quantify serotonin transport and release” (Scientific Reports, 2024).
